In PMC7311426, “An amphipathic peptide with antibiotic activity against multidrug-resistant Gram-negative bacteria” (Nature Communications, 2020):
Marks after values point to notes of the source that are not given here.

Assays:
Assay in all cases: microbe, parasite or virus in culture
[1] = system: A. baumannii; conditions: mode of 6 replicates
How it was run: (§1)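 Broth microdilution in MHB, 2-fold 12-point series from 128 or 64 down to 0.06 or 0.03 μg mL^−1, 5 × 10^5 CFU mL^−1. Extra runs in CAMHB per CLSI and in MHB with 1% agarose; n ≥ 6.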

[2] = system: P. aeruginosa; conditions: mode of 6 replicates
How it was run: as §1

[3] = system: S. aureus; conditions: S. aureus ATCC 25923 MSSA; MHB; mode of 6 replicates
How it was run: as §1

[4] = system: E. coli
How it was run: as §1

[5] = system: K. pneumoniae; conditions: mode of 6 replicates
How it was run: as §1

[6] = system: S. enterica Typhi; conditions: S. enterica Typhi ATCC 14028 control strain, CDC 6516-60; CAMHB; mode of 6 replicates
How it was run: as §1

[7] = system: A. baumannii clinical isolates
How it was run: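 MIC90 from CLSI broth microdilution (M07-A9) in two clinical-isolate panels. US panel (331 isolates, 2010-2012): AA139 diluted in 0.01% acetic acid/0.1% BSA. Worldwide panel (445 isolates, 2011-2013, four regions): CAMHB, with 0.002% Tween 80 added for AA139 and polymyxin B.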

[8] = A. baumannii, worldwide isolates 2011-2013, n = 108

## polymyxin B [PolymyxinB, reference compound]
[1]; A. baumannii ATCC 19636 type strain, CAMHB
  BMD MIC: 0.06 µg/mL
[1]; A. baumannii ATCC 19636 type strain, MHB
  BMD MIC: 0.03 µg/mL
[1]; A. baumannii Greece CI, XDR, PmxR, MHB
  BMD MIC: 8 to 16 µg/mL
[2]; P. aeruginosa ATCC 27853 control strain, CAMHB
  BMD MIC: ≤0.25 µg/mL
[2]; P. aeruginosa ATCC 27853 control strain, MHB
  BMD MIC: 0.25 µg/mL
[2]; P. aeruginosa FADDI-070, MDR, PmxR, MHB/CAMHB
  BMD MIC: 32 µg/mL
[3]
  BMD MIC: 128 µg/mL
[4]; BMD
  MIC against E. coli AID#172 MDR clinical isolate: 0.03 µg/mL
[4]; E. coli ATCC 25922 FDA control strain, CAMHB, mode of 6 replicates
  BMD MIC: 0.125 µg/mL
[4]; E. coli ATCC 25922 FDA control strain, MHB, mode of 6 independent biological replicates
  BMD MIC: 0.25 µg/mL
[4]; E. coli ATCC 700926 K12 (MG1655), CAMHB, mode of 6 replicates
  BMD MIC: 0.015 µg/mL
[4]; E. coli ATCC 700928 CFT073 UPEC, CAMHB, mode of 6 replicates
  BMD MIC: ≤0.25 µg/mL
[4]; E. coli CI 12-6-83 Hong Kong, mcr-1 pos, ESBL, CAMHB, mode of 6 replicates
  BMD MIC: 2 µg/mL
[5]; K. pneumoniae ATCC 13883 type strain (polymyxin/colistin heteroresistant), MHB
  BMD MIC: 0.5-8# μg mL-1
[5]; K. pneumoniae ATCC 700603 (K6), MDR, OXA-2/SHV-18, CAMHB
  BMD MIC: 0.06 µg/mL
[5]; K. pneumoniae ATCC 700603 (K6), MDR, OXA-2/SHV-18, MHB
  BMD MIC: 0.125 µg/mL
[5]; K. pneumoniae BAA-2146, MDR, ESBL, NDM-1 pos, MHB
  BMD MIC: 0.125 µg/mL
[5]; K. pneumoniae Greece CI 8_GR_13, XDR, KPC-2, PmxR, MHB
  BMD MIC: 32 µg/mL
[6]
  BMD MIC: 0.03 µg/mL
[7]
  Number of isolates with MIC 0.125 (MIC frequency distribution): 4
[7]; [8]
  MIC50: 0.03 µg/mL
  MIC90: 0.125 µg/mL
[7]; A. baumannii, worldwide isolates 2011-2013, n = 108, count of isolates at MIC 0.03
  Number of isolates with MIC 0.03 (MIC frequency distribution): 75
[7]; A. baumannii, worldwide isolates 2011-2013, n = 108, count of isolates at MIC 0.06
  Number of isolates with MIC 0.06 (MIC frequency distribution): 18
[7]; A. baumannii, worldwide isolates 2011-2013, n = 108, count of isolates at MIC 0.25
  Number of isolates with MIC 0.25 (MIC frequency distribution): 0
[7]; A. baumannii, worldwide isolates 2011-2013, n = 108, count of isolates at MIC 0.5
  Number of isolates with MIC 0.5 (MIC frequency distribution): 2
[7]; A. baumannii, worldwide isolates 2011-2013, n = 108, count of isolates at MIC 1
  Number of isolates with MIC 1 (MIC frequency distribution): 2
[7]; A. baumannii, worldwide isolates 2011-2013, n = 108, count of isolates at MIC 2
  Number of isolates with MIC 2 (MIC frequency distribution): 1
[7]; A. baumannii, worldwide isolates 2011-2013, n = 108, count of isolates at MIC 4
  Number of isolates with MIC 4 (MIC frequency distribution): 1
[7]; A. baumannii, worldwide isolates 2011-2013, n = 108, count of isolates at MIC 8
  Number of isolates with MIC 8 (MIC frequency distribution): 3
[7]; A. baumannii, worldwide isolates 2011-2013, n = 108, count of isolates at MIC 16
  Number of isolates with MIC 16 (MIC frequency distribution): 0
[7]; A. baumannii, worldwide isolates 2011-2013, n = 108, count of isolates at MIC 32
  Number of isolates with MIC 32 (MIC frequency distribution): 0
[7]; A. baumannii, worldwide isolates 2011-2013, n = 108, count of isolates at MIC 64
  Number of isolates with MIC 64 (MIC frequency distribution): 0
[7]; A. baumannii, worldwide isolates 2011-2013, n = 108, count of isolates at MIC 128
  Number of isolates with MIC 128 (MIC frequency distribution): 0
[7]; A. baumannii, worldwide isolates 2011-2013, n = 108, count of isolates at MIC >16
  Number of isolates with MIC >16 (MIC frequency distribution): 0
[7]; A. baumannii, worldwide isolates 2011-2013, n = 108, count of isolates at MIC >32
  Number of isolates with MIC >32 (MIC frequency distribution): 0
[7]; A. baumannii, worldwide isolates 2011-2013, n = 108, count of isolates at MIC >128
  Number of isolates with MIC >128 (MIC frequency distribution): 0
[7]; A. baumannii, worldwide isolates 2011-2013, n = 108, count of isolates at MIC ≤0.015
  Number of isolates with MIC ≤0.015 (MIC frequency distribution): 2
